From the supplement of paper PMC10331698
± gives the standard deviation of the averaged measurements.

Tests used:
Assay in all cases: level (log10 ratio to DMSO vehicle control); higher = higher biomarker level / cell amount than vehicle control
[1] = compound: C=C(C)C(=O)OCC(F)(F)C(F)(F)C(F)(F)F [2,2,3,3,4,4,4-Heptafluorobutyl methacrylate]; settings: in DMSO
Experimental: (§1)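 BioMAP Diversity Plus panel of 12 human primary cell co-culture systems (3C, 4H, LPS, SAg, BT, BF4T, BE3C, CASM3C, HDF3CGF, KF3CT, MyoF, Mphg). Compounds were added 1 h before stimulation and left for 24 h (MyoF 48 h; BT 72 h for soluble read-outs or 6 d for IgG). Biomarkers were read by ELISA, cytotoxicity by SRB, PBMC viability and proliferation by Alamar Blue. Each well value was divided by the mean of 8 DMSO control wells on the same plate and log10 transformed; duplicate blinded samples were tested at 4 concentrations.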

[2] = compound: OCC(F)(F)C(F)(F)C(F)(F)C(F)(F)C(F)(F)C(F)(F)F [6:1 Fluorotelomer alcohol]; settings: in DMSO
Experimental: as §1

[3] = compound: FC(F)(F)C(F)(F)C(F)(F)C(F)(F)CCI [1H,1H,2H,2H-Perfluorohexyl iodide]; settings: in DMSO
Experimental: as §1

[4] = compound: OCCCC(F)(F)C(F)(F)C(F)(F)C(F)(F)C(F)(F)C(F)(F)C(F)(F)C(F)(F)F [3-(Perfluorooctyl)propanol]; settings: 6700 nM; in DMSO
Experimental: as §1

[5] = compound: C=CC(=O)OCC(F)(F)C(F)(F)C(F)(F)C(F)(F)C(F)(F)C(F)(F)C(F)(F)C(F)F [1H,1H,9H-Perfluorononyl acrylate]; settings: in DMSO
Experimental: as §1

[6] = compound: O=P(O)(O)CCC(F)(F)C(F)(F)C(F)(F)C(F)(F)C(F)(F)C(F)(F)F [2-(Perfluorohexyl)ethylphosphonic acid]; settings: in DMSO
Experimental: as §1

[7] = compound: FC(F)(F)COC(OCC(F)(F)F)OCC(F)(F)F [tris(Trifluoroethoxy)methane]; settings: in DMSO
Experimental: as §1

Test System	level (log10) ([1]; 6700 nM)	level (log10) ([1]; 20000 nM)	level (log10) ([1]; 60000 nM)	level (log10) ([2]; 6700 nM)	level (log10) ([2]; 20000 nM)	level (log10) ([2]; 60000 nM)	level (log10) ([3]; 6700 nM)	level (log10) ([3]; 20000 nM)	level (log10) ([3]; 60000 nM)	level (log10) [4]	level (log10) ([5]; 6700 nM)	level (log10) ([5]; 20000 nM)	level (log10) ([5]; 60000 nM)	level (log10) ([6]; 6700 nM)	level (log10) ([6]; 20000 nM)	level (log10) ([6]; 60000 nM)	level (log10) ([7]; 6700 nM)	level (log10) ([7]; 20000 nM)	level (log10) ([7]; 60000 nM)
CASM3C:CD141/Thrombomodulin	0.0205 ± 0.011	0 ± 0.042	0.0115 ± 0.036	0.0105 ± 0.044	0.023 ± 0.0028	0.023 ± 0.0099	-0.0085 ± 0.021	-0.009 ± 0.014	0.0275 ± 0.049	0.0455 ± 0.019	-0.014 ± 0.069	-0.0095 ± 0.0078	-0.0175 ± 0.033	0.027 ± 0.017	0.0185 ± 0.011	0.016 ± 0.0042	-0.0075 ± 0.0092	-0.006 ± 0.025	-0.0125 ± 0.019
HDF3CGF:CXCL11/I-TAC	-0.0085 ± 0.023	-0.01 ± 0.034	-0.0405 ± 0.018	-0.009 ± 0.016	-0.014 ± 0.0071	-0.22 ± 0.35	0.006 ± 0.011	-0.0165 ± 0.012	-0.0835 ± 0.00071	-0.367 ± 0.096	-0.014 ± 0.0014	-0.066 ± 0.033	-0.214 ± 0.11	-0.005	0.0325 ± 0.0021	0.0425 ± 0.021	-0.01 ± 0.0014	-0.0125 ± 0.021	-0.0145 ± 0.026
KF3CT:CXCL8/IL-8	-0.0045 ± 0.023	-0.0035 ± 0.015	-0.0035 ± 0.013	-0.0005 ± 0.025	-0.0045 ± 0.023	0.0025 ± 0.015	0.0135 ± 0.044	0.0355 ± 0.042	0.0315 ± 0.047	0.003 ± 0.0057	-0.0015 ± 0.0092	0.016 ± 0.0028	0.012 ± 0.033	-0.021 ± 0.0071	0.002 ± 0.0014	0.0355 ± 0.0035	0.002 ± 0.011	0.007 ± 0.013	0.012 ± 0.0014
3C:CD141/Thrombomodulin	-0.009 ± 0.0099	-0.0145 ± 0.013	0.002 ± 0.0071	-0.0155 ± 0.018	-0.0285 ± 0.0092	-0.005 ± 0.02	-0.041 ± 0.051	-0.0175 ± 0.052	0.0165 ± 0.059	-0.0055 ± 0.019	-0.042 ± 0.0028	-0.076 ± 0.028	-0.114 ± 0.016	0.01 ± 0.024	0.02 ± 0.051	0.0895 ± 0.044	-0.012 ± 0.061	-0.038 ± 0.047	-0.0425 ± 0.049
HDF3CGF:CXCL9/MIG	-0.0185 ± 0.005	-0.024 ± 0.0071	-0.0395 ± 0.011	-0.001 ± 0.0042	-0.012 ± 0.011	-0.0175 ± 0.0078	0.0105 ± 0.028	0.007 ± 0.0085	-0.096 ± 0.016	-0.0895 ± 0.054	-0.0315 ± 0.025	-0.083 ± 0.025	-0.215 ± 0.071	-0.003 ± 0.0099	0.008 ± 0.017	-0.006 ± 0.0057	0.007 ± 0.0099	0.002 ± 0.0071	-0.017 ± 0.018
HDF3CGF:TIMP-1	-0.0075 ± 0.0078	-0.007 ± 0.024	-0.019 ± 0.03	-0.009 ± 0.0085	-0.022	-0.014 ± 0.027	0.012 ± 0.037	-0.0115 ± 0.05	-0.065 ± 0.083	-0.105 ± 0.052	0.001 ± 0.042	-0.0005 ± 0.04	-0.0165 ± 0.047	-0.0115 ± 0.018	0.0035 ± 0.005	0.0545 ± 0.06	-0.0195 ± 0.047	0.011 ± 0.02	-0.001 ± 0.042
lMphg:M-CSF	-0.011 ± 0.0085	-0.02 ± 0.02	-0.021 ± 0.0071	-0.023 ± 0.028	-0.0415 ± 0.035	-0.0285 ± 0.029	-0.018 ± 0.017	-0.0275 ± 0.018	0.0185 ± 0.0035	-0.0255 ± 0.00071	0.0155 ± 0.04	-0.0225 ± 0.018	-0.042 ± 0.025	-0.0175 ± 0.016	-0.0335 ± 0.015	-0.0075 ± 0.016	-0.012 ± 0.0071	-0.025 ± 0.035	-0.0135 ± 0.029
KF3CT:CXCL9/MIG	0.009	0 ± 0.0042	0.0005 ± 0.011	-0.0025 ± 0.019	-0.003 ± 0.016	0.0025 ± 0.0021	0.004 ± 0.0099	0.0095 ± 0.011	0.0135 ± 0.033	-0.018 ± 0.0057	-0.0145 ± 0.0035	-0.007 ± 0.017	-0.019 ± 0.0057	0.0055 ± 0.0021	-0.001 ± 0.0099	0.006 ± 0.0071	0.0215 ± 0.032	0.006 ± 0.027	0.0175 ± 0.015
KF3CT:PAI-I	0.005 ± 0.0099	0.008 ± 0.0014	0.014	-0.0005 ± 0.011	-0.001 ± 0.011	0.008 ± 0.0099	-0.0025 ± 0.023	-0.001 ± 0.013	-0.0225 ± 0.015	-0.104 ± 0.077	-0.017	-0.023 ± 0.042	-0.0465 ± 0.022	-0.033 ± 0.037	-0.0505 ± 0.028	-0.039 ± 0.025	-0.0035 ± 0.0035	-0.006 ± 0.0014	0.0025 ± 0.0092
KF3CT:uPA	-0.0035 ± 0.011	-0.008 ± 0.021	-0.003 ± 0.0042	-0.0045 ± 0.0092	-0.002 ± 0.018	0.0085 ± 0.025	-0.001 ± 0.02	0.0045 ± 0.013	-0.005 ± 0.0099	-0.0045 ± 0.025	-0.0285 ± 0.012	-0.005 ± 0.025	-0.0395 ± 0.013	0.007 ± 0.0057	0.013 ± 0.011	0.015 ± 0.02	-0.0005 ± 0.043	-0.011 ± 0.018	-0.014 ± 0.023
